Here are results for one compound from PMC8728441, “Biosynthesis of the redox cofactor mycofactocin is controlled by the transcriptional regulator MftR and induced by long-chain acyl-CoA species” (The Journal of Biological Chemistry, 2021).

In test [1] the target is T1, MftR L120A (Mycolicibacterium smegmatis, UniProt A0QSB5, L120A).
T1 sequence (A0QSB5 1-200 L120A): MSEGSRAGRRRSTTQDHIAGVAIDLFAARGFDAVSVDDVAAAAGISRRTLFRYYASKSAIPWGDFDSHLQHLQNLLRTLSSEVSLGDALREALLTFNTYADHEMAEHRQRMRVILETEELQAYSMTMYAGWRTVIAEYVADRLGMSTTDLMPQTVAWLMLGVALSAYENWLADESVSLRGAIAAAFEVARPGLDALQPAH
As to the kind of experiment: ITC binding of oleoyl-CoA to MftR variant. Also noted: species or system Mycobacterium smegmatis mc^2155.

Test [2] addresses T2, MftR D16W (Mycolicibacterium smegmatis, UniProt A0QSB5, D16W).
T2 sequence (A0QSB5 1-200 D16W): T1 sequence (A0QSB5 1-200 L120A)
The test can be described thus: ITC binding of oleoyl-CoA to MftR variant. Also noted: species or system Mycobacterium smegmatis mc^2155. The source says: (§1) Next, we examined which amino acid residues contribute to the interaction between MftR and oleoyl-CoA. The crystal structure of Msmeg MftR is currently unavailable; however, an unpublished structure of Rhodococcus jostii RHA1 MftR has been deposited in the Protein Data Bank (PDB) (PDB ID: 2RAE, 54% identical, Fig. S3). Using this structure, we employed SwissDock to model oleoyl-CoA bound to MftR (Fig. 5) ([41], [42]). From the docked structure, we identified eight conserved residues on MftR that were expected to create the acyl-binding pocket or bind CoA through electrostatic interactions. Following single amino acid replacements of the residues, we measured the Kd values of the mutant proteins to oleoyl-CoA using ITC. For the putative acyl-binding pocket residues Phe65, Phe96, and Ile114, mutations to alanine led to no or modest change to the Kd for oleoyl-CoA (Table 1). […] Conversely, when His68 was mutated to alanine, binding of oleoyl-CoA by the protein was undetectable. To validate this observation, competitive EMSAs were carried out using the H68A mutant. […] Thus, it is highly likely that His68 is an important residue for oleoyl-CoA binding. To evaluate residues that were expected to interact with CoA, Gln15, Asp16, Ser67, and Asp66 were targeted. Of these, mutants of Asp16 and Ser67 had the greatest effect (Table 1). […] This latter observation was validated using competitive EMSAs (Fig. S4B). […] Taken together, it is likely that Ser67 and Asp16 participate in oleoyl-CoA binding, likely through electrostatic interactions.
(§2) Mutant strand synthesis reactions were performed according to the Agilent QuikChange site-directed mutagenesis protocol. The mftR_pET28a plasmid was used as a template for site-directed mutagenesis studies. Sequence-verified plasmids were transformed into E. coli BL21(DE3) pLysS cells for protein production and purified using the same protocol as wildtype MftR.
(§3) ITC was performed using TA Nano ITC. MftR was loaded in the sample cell at the concentration of 16 and 250 μM acyl-CoAs (C12–C18) loaded in the syringe. To minimize the effect of buffer mismatch, the stock concentration of acyl-CoAs was prepared using ITC buffer (50 mM Hepes, 50 mM NaCl, and pH 7.5), and the pH was adjusted to within 0.05 units. In addition, MftR was buffer exchanged into ITC buffer using a PD-10 column (GE Life Sciences). The volume of the titrant added at each injection into the sample cell was 2.22 μl. The time interval between the successive injections was 180 s. The temperature of the cell was kept at 25 °C. The data obtained were fit by independent one-site model using NanoAnalyze Data Analysis, version 3.8.0, that was provided with the instrument.

The target of test [3] is T3, MftR I114A (Mycolicibacterium smegmatis, UniProt A0QSB5, I114A).
T3 sequence (A0QSB5 1-200 I114A): T1 sequence (A0QSB5 1-200 L120A)
The test can be described thus: ITC binding of oleoyl-CoA to MftR variant. Also noted: species or system Mycobacterium smegmatis mc^2155.
Excerpt: as §1, §2, §3

Test [4] concerns the target T4, MftR D66A (Mycolicibacterium smegmatis, UniProt A0QSB5, D66A).
T4 sequence (A0QSB5 1-200 D66A): T1 sequence (A0QSB5 1-200 L120A)
The test can be described thus: ITC binding of oleoyl-CoA to MftR variant. Also noted: species or system Mycobacterium smegmatis mc^2155.
Excerpt: as §1, §2, §3

The test system of test [5] is MftR D16R–Omft complex. The test can be described thus: Competitive EMSA with D16R mutant and oleoyl-CoA. It counts as binding, Mycobacterium smegmatis mc^2155. The note with it: up to 100 μM oleoyl-CoA. The source says:
(§4) Next, we examined which amino acid residues contribute to the interaction between MftR and oleoyl-CoA. The crystal structure of Msmeg MftR is currently unavailable; however, an unpublished structure of Rhodococcus jostii RHA1 MftR has been deposited in the Protein Data Bank (PDB) (PDB ID: 2RAE, 54% identical, Fig. S3). Using this structure, we employed SwissDock to model oleoyl-CoA bound to MftR (Fig. 5) ([41], [42]). From the docked structure, we identified eight conserved residues on MftR that were expected to create the acyl-binding pocket or bind CoA through electrostatic interactions. Following single amino acid replacements of the residues, we measured the Kd values of the mutant proteins to oleoyl-CoA using ITC. For the putative acyl-binding pocket residues Phe65, Phe96, and Ile114, mutations to alanine led to no or modest change to the Kd for oleoyl-CoA (Table 1). […] Conversely, when His68 was mutated to alanine, binding of oleoyl-CoA by the protein was undetectable. To validate this observation, competitive EMSAs were carried out using the H68A mutant. […] Thus, it is highly likely that His68 is an important residue for oleoyl-CoA binding. To evaluate residues that were expected to interact with CoA, Gln15, Asp16, Ser67, and Asp66 were targeted. Of these, mutants of Asp16 and Ser67 had the greatest effect (Table 1). […]
(In EMSA bound probe runs differently from free probe, usually more slowly.)

Test [6] has as its target MftR L120R (Mycolicibacterium smegmatis, UniProt A0QSB5, L120R). The test can be described thus: ITC binding of oleoyl-CoA to MftR variant. Also noted: species or system Mycobacterium smegmatis mc^2155. The protocol:
(§5) Finally, we examined the effects of mutations at the interface of the DNA-binding and effector-binding domains. Here, residues Leu120 and Met127 were mutated to arginine and alanine, respectively, and the Kds for oleoyl-CoA and Omft were measured as described previously.
as §2
as §3, with “The data obtained were fit by independent one-site model using NanoAnalyze Data Analysis, version 3.8.0, that was provided with the instrument.” left out

The target in test [7] is MftR M127A (Mycolicibacterium smegmatis, UniProt A0QSB5, M127A). As to the kind of experiment: ITC binding of oleoyl-CoA to MftR variant. Also noted: species or system Mycobacterium smegmatis mc^2155. On the procedure: as §5, §2
as §3, with “The data obtained were fit by independent one-site model using NanoAnalyze Data Analysis, version 3.8.0, that was provided with the instrument.” left out

Test [8] concerns MftR H68A–Omft complex. The test can be described thus: Competitive EMSA with H68A mutant and oleoyl-CoA. It counts as binding, Mycobacterium smegmatis mc^2155. The note with it: up to 100 μM oleoyl-CoA.
Excerpt: as §4

In the case of `CCCCCCCC/C=C\CCCCCCCC(=O)SCCNC(=O)CCNC(=O)[C@H](O)C(C)(C)COP(=O)(O)OP(=O)(O)OC[C@H]1O[C@@H](n2cnc3c(N)ncnc32)[C@H](O)[C@@H]1OP(=O)(O)O` [oleoyl-CoA], the Kd in test [1] worked out at 5.2 ± 0.2 µM; in test [2], 4.8 ± 0.2 µM; in test [3], 2.4 ± 0.1 µM; in test [4], 1.6 ± 0.1 µM; in test [6] it was 6.2 ± 0.2 µM; in test [7] it was 4.8 ± 0.1 µM. Moreover, the “release of Omft from D16R mutant” value in test [5] is recorded as “remained bound to Omft”. The “release of Omft from H68A mutant” value in test [8] is listed as “remained bound to Omft”.

One may read the Kd as the concentration at which binding is half-saturated. Lower therefore signals a tighter complex.
